Measurements reported in PMC12452389, “Arginine-Derived Cationic Surfactants Containing Phenylalanine and Tryptophan: Evaluation of Antifungal Activity, Biofilm Eradication, Cytotoxicity, and Ecotoxicity” (Journal of Xenobiotics, 2025).
≈ marks a conversion by molar mass, not a printed value. Where “and” joins values, the source holds several entries; their conditions need not be identical. Equal values may be shown once. Where a name gives a salt, the structure may show the parent alone. Read-outs that look alike come from different tables or passages of the source.

Key:
[1] = Surface tension, pendant drop tensiometer (cmc, γc); format: physicochemical; conditions: for cmc: from surface tension
Description: Surface tension was measured using a custom-built pendant drop tensiometer, as described in detail in reference. Briefly, a droplet of surfactant solution is formed at the tip of a straight-cut Teflon tube. The image of the droplet is captured using a webcam, and its shape is analyzed by fitting the droplet profile to the Laplace–Young equation [14], To minimize evaporation, all measurements were conducted in a saturated humid atmosphere. The use of this technique is especially well-suited for cationic surfactants because it helps to mitigate complications related to surface adsorption. Critical micelle concentration values (cmc) were determined by finding the intersection of the linear fits before and after the break in the curves.

[2] = test system: Candida albicans ATCC 90028; assay: MIC broth microdilution; format: cell-based; conditions: C. albicans; for MIC: Candida albicans, ATCC90028, read-out: MIC
Summary of the method: (§1)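 Broth microdilution in RPMI 1640, twofold compound dilutions 256–2 μg/mL, final inoculum 7.5 × 10^5 CFU/mL from Sabouraud-grown colonies. MIC read by turbidity and confirmed by 0.015% resazurin, 3 h at 30 °C, blue-to-pink colour change.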

Candida auris ATCC 21092 = assay: MIC broth microdilution; format: cell-based; conditions: C. auris; for MIC: Candidozyma auris, ATCC21092, read-out: MIC
Summary of the method: as §1

[3] = test system: Candida glabrata ATCC 66032; assay: MIC broth microdilution; format: cell-based
Summary of the method: as §1

[4] = test system: Candida parapsilosis ATCC 22019; assay: MIC broth microdilution; format: cell-based; conditions: C. parapsilosis; for MIC: Lodderomyces parapsilosis, ATCC22019, read-out: MIC
Summary of the method: as §1

[5] = test system: Candida rugosa ATCC 10571; assay: MIC broth microdilution; format: cell-based; conditions: C. rugosa; for MIC: Diutina rugosa, ATCC10571, read-out: MIC
Summary of the method: as §1

[6] = test system: Candida tropicalis ATCC 7349; assay: MIC broth microdilution; format: cell-based; conditions: C. tropicalis; for MIC: Candida tropicalis, ATCC7349, read-out: MIC
Summary of the method: as §1

[7] = test system: Cyberlindnera jadinii ATCC 60459 (C. jardinii); assay: MIC broth microdilution; format: cell-based; conditions: for Selectivity Index (HC50/MIC): C. jardini; for MIC: Williopsis jadinii
Summary of the method: as §1

erythrocytes = assay: Hemolytic activity assay; format: cell-based; conditions: rabbit erythrocytes
Summary of the method: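 Rabbit erythrocytes washed in PBS pH 7.4, exposed to varying surfactant concentrations in PBS for 10 min at room temperature. Hemolysis read as supernatant absorbance at 540 nm relative to distilled-water 100% lysis control; HC50 taken from concentration–response curves.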

Daphnia magna = assay: Acute toxicity, immobilization test; format: in vivo; conditions: Daphnia magna, 48 h
Summary of the method: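 Neonates under 24 h old exposed in the dark at 20 °C, pH 8.0, Ca:Mg 4:1, hardness 250 mg/L as CaCO3, to ten geometric concentrations, 4 replicates of 5 animals. Immobility (no swimming after 15 s gentle stimulation) scored at 48 h; immobilization plotted against concentration on probability–log scale.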

Vibrio fischeri = assay: Luminescence reduction test; format: cell-based; conditions: Aliivibrio fischeri, 0.25 h; Vibrio fischeri bioluminescence, 15 min of exposure; 95% confidence intervals in parentheses
Description: Ecotoxicological assessment of cationic surfactants was conducted using the Vibrio fischeri luminescent bioassay. This method relies on the measurement of decreased bioluminescent output from marine bacteria following contact with potentially toxic substances. Regression analysis was used to determine the concentration of the compound that caused a 50% reduction (EC50) in the amount of light emitted by the bacteria. The stated toxicity statistics given are based on the bacteria being exposed to the ionic liquid solution for 15 min at 15 °C.

[8] = design: method as in PMID 36559096; conditions: conductivity values; cited from earlier work
[9] = Nakaseomyces glabratus, ATCC66032, 24 h, C. glabrata, RPMI 1640, 24 h, 30 °C, read-out: MIC
[10] = Nakaseomyces glabratus, ATCC66032, C. glabrata, value in parentheses, read-out: MIC
[11] = ATCC60459, C. jardinii, RPMI 1640, 24 h, 30 °C, read-out: MIC
[12] = ATCC60459, C. jardinii, value in parentheses, read-out: MIC

SMILES | γc (surface tension at the cmc) [1] [mNm^−1] | cmc [1] [mM] | Selectivity Index (HC50/MIC) ([2]; Table S2) | MIC ([2]; RPMI 1640, 24 h, 30 °C) [µg/mL] | MIC ([2]; value in parentheses) [µM] | Selectivity Index (HC50/MIC) (Candida auris ATCC 21092; Table S2) | MIC (Candida auris ATCC 21092; RPMI 1640, 24 h, 30 °C) [µg/mL] | MIC (Candida auris ATCC 21092; value in parentheses) [µM] | Selectivity Index (HC50/MIC) ([3]; C. glabrata, Table S2) | MIC [3, 9] [µg/mL] | MIC [3, 10] [µM] | Selectivity Index (HC50/MIC) ([4]; Table S2) | MIC ([4]; RPMI 1640, 24 h, 30 °C) [µg/mL] | MIC ([4]; value in parentheses) [µM] | Selectivity Index (HC50/MIC) ([5]; Table S2) | MIC ([5]; RPMI 1640, 24 h, 30 °C) [µg/mL] | MIC ([5]; value in parentheses) [µM] | Selectivity Index (HC50/MIC) ([6]; Table S2) | MIC ([6]; RPMI 1640, 24 h, 30 °C) [µg/mL] | MIC ([6]; value in parentheses) [µM] | also measured
CCCCCCCCCCCCCCNC(=O)C(CCCNC(=N)N)NC(=O)C(N)Cc1ccccc1 (centres unmarked) [PANHC14] | 28.7 ± 1.5 | 0.35 | 1.2 | 16 | 27 | 1.2 | 16 | 27 | 2.4 | 8 | 14 | 2.4 | 8 | 14 | 1.2 | 16 | 27 | 2.4 | 8 | 14 | Selectivity Index (HC50/MIC) ([7]; Table S2): 1.2; MIC [7, 11]: 16 µg/mL; MIC [7, 12]: 27 µM; HC50 (erythrocytes; 10 min, room temperature): 20 ± 0.5 µg/mL; HC50 (erythrocytes; value in parentheses): 34 ± 0.8 µM; EC50 (Daphnia magna): 0.71 µg/mL (≈ 1.37 µM); EC50 (Vibrio fischeri): 1.8 µg/mL (≈ 3.48 µM); cmc Cond [8]: 0.7 mM
CCCCCCCCCCCCNC(=O)C(CCCNC(=N)N)NC(=O)C(N)Cc1c[nH]c2ccccc12 (centres unmarked) [TANHC12] | 28.7 ± 3.3 | 2.5 | 0.25 | 64 | 108 | 0.1 | 128 | 216 | 0.25 | 128 | 108 | 0.5 | 32 | 54 | 4 | 4 | 7 | 0.5 | 32 | 54 | Selectivity Index (HC50/MIC) ([2]; Table S1): 0.25; Selectivity Index (HC50/MIC) (Candida auris ATCC 21092; Table S1): 0.12; MIC ([3]; C. glabrata, RPMI 1640, 24 h, 30 °C): 64 µg/mL; Selectivity Index (HC50/MIC) ([3]; C. glabrata, Table S1): 0.12; MIC ([3]; Nakaseomyces glabratus, ATCC66032, 24 h, C. glabrata, value in parentheses, read-out: MIC): 216 µM; Selectivity Index (HC50/MIC) ([4]; Table S1): 0.5; Selectivity Index (HC50/MIC) ([5]; Table S1): 3.8; Selectivity Index (HC50/MIC) ([6]; Table S1): 0.5; Selectivity Index (HC50/MIC) ([7]; Table S1): 0.25; Selectivity Index (HC50/MIC) ([7]; Table S2): 0.25; MIC ([7]; ATCC60459): 108 µM; MIC ([7]; ATCC60459, 24 h): 64 µg/mL; HC50 (erythrocytes; 10 min, room temperature): 16 ± 0.3 µg/mL; HC50 (erythrocytes; value in parentheses): 27 ± 0.6 µM; EC50 (Daphnia magna): 3 µg/mL (≈ 5.68 µM); EC50 (Vibrio fischeri): 1.9 µg/mL (≈ 3.6 µM); cmc Cond [8]: 0.6 mM
CCCCCCCCCCNC(=O)C(CCCNC(=N)N)NC(=O)C(N)Cc1c[nH]c2ccccc12 (centres unmarked) [TANHC10] | 30.6 ± 2.0 | 5.4 | 1.15 | 64 | 112 | 0.6 | 128 | 224 | 1.15 | 64 | 112 | 1.15 | 64 | 112 | 18 | 4 | 7 | 1.15 | 64 | 112 | Selectivity Index (HC50/MIC) ([7]; Table S2): 1.15; MIC [7, 11]: 64 µg/mL; MIC [7, 12]: 112 µM; HC50 (erythrocytes; 10 min, room temperature): 74 ± 2.8 µg/mL; HC50 (erythrocytes; value in parentheses): 129 ± 5 µM; EC50 (Daphnia magna): 9.7 µg/mL (≈ 19.4 µM); EC50 (Vibrio fischeri): 2.2 µg/mL (≈ 4.4 µM); cmc Cond [8]: 1.7 mM
CCCCCCCCCCCCNC(=O)C(CCCNC(=N)N)NC(=O)C(N)Cc1ccccc1 (centres unmarked) [PANHC12, phenylalanine-arginine dodecyl amide dihydrochloride] | 30.4 ± 2.6 | 1.5 | 0.8 | 32 | 56 | 0.4 | 64 | 112 | 0.8 | 32 | 56 | 0.8 | 32 | 56 | 0.4 | 64 | 112 | 0.8 | 32 | 56 | Selectivity Index (HC50/MIC) ([2]; Table S1): 0.8; Selectivity Index (HC50/MIC) (Candida auris ATCC 21092; Table S1): 0.4; Selectivity Index (HC50/MIC) ([3]; C. glabrata, Table S1): 0.8; Selectivity Index (HC50/MIC) ([4]; Table S1): 0.8; Selectivity Index (HC50/MIC) ([5]; Table S1): 0.4; Selectivity Index (HC50/MIC) ([6]; Table S1): 0.8; Selectivity Index (HC50/MIC) ([7]; Table S1): 0.8; Selectivity Index (HC50/MIC) ([7]; Table S2): 0.8; MIC ([7]; ATCC60459, 24 h): 32 µg/mL and 88 µM; MIC [7, 12]: 56 µM; HC50 (erythrocytes; 10 min, room temperature): 26 ± 1.2 µg/mL; HC50 (erythrocytes; value in parentheses): 46 ± 2.2 µM; EC50 (Daphnia magna): 3.4 µg/mL; EC50 (Vibrio fischeri): 3 µg/mL; cmc Cond [8]: 2.2 mM
